Measurements from USRE47302E1 (ONYX THERAPEUTICS INC., priority 2013, dated 2019).
Values after ≈ are worked out from the molar mass of the structure shown.

Assay: Solubility pH 7
Details: for solubility: pH 7, aqueous buffer

Row | SMILES | solubility [µg/mL] | Solubility pH 7 (μg/mL) (pH 7)
1 | COc1ccc(C[C@H](NC(=O)[C@H](C)NC(=O)CN2CCOCC2)C(=O)N[C@@H](C[C@H]2CC[C@H](O)CC2)C(=O)[C@@]2(C)CO2)cc1 [Compound C-1002, (S)-N-((S)-3-((1r,4S)-4-hydroxycyclohexyl)-1-((R)-2-methyloxiran-2-yl)-1-oxopropan-2-yl)-3-(4-methoxyphenyl)-2-((S)-2-(2-morpholinoacetamido)propanamido)propanamide] | 3190 (≈ 5.29 mM) | –
2 | COc1ccc(C[C@H](NC(=O)[C@H](C)NC(=O)CN2CCOCC2)C(=O)N[C@@H](C[C@@H]2CCCO2)C(=O)[C@@]2(C)CO2)cc1 [Compound C-1016, (S)-3-(4-methoxyphenyl)-N-((S)-1-((R)-2-methyloxhan-2-yl)-1-oxo-3-((S)-tetrahydrofuran-2-yl)propan-2-yl)-2-((S)-2-(2-morpholinoacetamido)propanamido)propanamide] | 6890 (≈ 12 mM) | –
3 | COc1ccc(C[C@H](NC(=O)[C@H](C)NC(=O)CN2CCOCC2)C(=O)N[C@@H](C[C@H]2CCOC2)C(=O)[C@@]2(C)CO2)cc1 [Compound C-1025, (S)-3-(4-methoxyphenyl)-N-((S)-1-((R)-2-methyloxiran-2-yl)-1-oxo-3-((S)-tetrahydrofuran-3-yl)propan-2-yl)-2-((S)-2-(2-morpholinoacetamido)propanamido) propanamide] | – | >10
4 | COc1ccc(C[C@H](NC(=O)[C@H](C)NC(=O)CN2CCOCC2)C(=O)N[C@@H](CC2CNC(=O)C2)C(=O)[C@@]2(C)CO2)cc1 (stereo partly drawn) [Compound C-1035, (2S)-3-(4-methoxyphenyl)-N-((2S)-1-((R)-2-methyloxiran-2-yl)-1-oxo-3-(5-oxopyrrolidin-3-yl)propan-2-yl)-2-((S)-2-(2-morpholinoacetamido)propanamido)propanamide] | > 10 | –
5 | COc1ccc(C[C@H](NC(=O)[C@H](C)NC(=O)CN2CCOCC2)C(=O)N[C@@H](C[C@H]2CCN(C)C2=O)C(=O)[C@@]2(C)CO2)cc1 [Compound C-1040, (2S)-3-(4-methoxyphenyl)-N-((2S)-3-(1-methyl-2-oxopyrrolidin-3-yl)-1-((R)-2-methyloxiran-2-yl)-1-oxopropan-2-yl)-2-((S)-2-(2-morpholinoacetamido)propanamido) propanamide] | 12300 (≈ 20.5 mM) | –
6 | COc1ccc(C[C@H](NC(=O)[C@H](C)NC(=O)CN2CCOCC2)C(=O)N[C@@H](CN2CCCC2=O)C(=O)[C@@]2(C)CO2)cc1 [Compound C-1042, (S)-3-(4-methoxyphenyl)-N-((S)-1-((R)-2-methyloxiran-2-yl)-1-oxo-3-(2-oxopyrrolidin-1-yl)propan-2-yl)-2-((S)-2-(2-morpholinoacetamido)propanamido)propanamide] | 8780 (≈ 14.9 mM) | –
7 | COc1ccc(C[C@H](NC(=O)[C@@H](C)NC(=O)[C@H]2CNC(=O)C2)C(=O)N[C@@H](CC2CCCC2)C(=O)[C@@]2(C)CO2)cc1 [Compound C-1067, (R)-N-((R)-1-(((S)-1-(((S)-3-cyclopentyl-1-((R)-2-methyloxiran-2-yl)-1-oxopropan-2-yl)amino)-3-(4-methoxyphenyl)-1-oxopropan-2-yl)amino)-1-oxopropan-2-yl)-5-oxopyrrolidine-3-carboxamide] | 4590 (≈ 8.25 mM) | –
8 | COc1ccc(C[C@H](NC(=O)[C@@H](C)NC(=O)[C@@H]2CNC(=O)C2)C(=O)N[C@@H](CC2CCCC2)C(=O)[C@@]2(C)CO2)cc1 [Compound C-1068, (S)-N-((R)-1-(((S)-1-(((S)-3-cyclopentyl-1-((R)-2-methyloxiran-2-yl)-1-oxopropan-2-yl)amino)-3-(4-methoxyphenyl)-1-oxopropan-2-yl)amino)-1-oxopropan-2-yl)-5-oxopyrrolidine-3-carboxamide] | 4410 (≈ 7.92 mM) | –
9 | C[C@H](NC(=O)CN1CCOCC1)C(=O)N[C@@H](Cc1ccc2[nH]cnc2c1)C(=O)N[C@@H](CC1CCCC1)C(=O)[C@@]1(C)CO1 [Compound C-1069, (S)-3-(1H-benzo[d]imidazol-5-yl)-N-((S)-3-cyclopentyl-1-((R)-2-methyloxiran-2-yl)-1-oxopropan-2-yl)-2-((S)-2-(2-morpholinoacetamido)propanamido)propanamide] | 3540 (≈ 6.08 mM) | –
